The results in this text go back to PubChem BioAssay (NCI).

Among the test systems are SW-620 colon; UACC-257 melanoma; CCRF-CEM leukemia; SK-OV-3 ovarian; NCI-H460 lung; MALME-3M melanoma; SK-MEL-2 melanoma; NCI-H226 lung; HOP-62 NSCLC; MDA-MB-231 breast; SF-539 CNS; HCT-116 colon.
Common to all, as to assay: DTP human tumour cell line panel, 48 h

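Exposure lasted 48 hours, with cells grown in 96-well plates and compounds tested at five concentrations. TGI is the concentration that stops growth completely.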 Where a SMILES comes first, the peptide text is derived from it. The star is where a group is joined. Boc = CC(C)(C)OC(=O)*; OBn = c1ccc(CO*)cc1

A word on the TGI: it is the concentration at which net growth stops. Read a high TGI as less potent growth arrest.

In the case of `OCC(CCc1ccccc1I)C1=CCC2(CC1)OCCO2` (configuration not stated), the TGI in the experiment on SW-620 colon was 61.5 µM; with UACC-257 melanoma, 45.1 µM; in the experiment on CCRF-CEM leukemia, 35.7 µM; in the experiment on SK-OV-3 ovarian, above 100 µM; in the experiment with NCI-H460 lung, 57.7 µM; in the experiment with MALME-3M melanoma it was 33.6 µM. Moreover, the concentration for total growth inhibition (TGI) with SK-MEL-2 melanoma was 51 µM; with NCI-H226 lung, 88.2 µM; with HOP-62 NSCLC, 37.4 µM; in the experiment on MDA-MB-231 breast, 62.9 µM; with SF-539 CNS, 32.5 µM.
As to `Cc1cccc2nc3c(=O)[nH]c(=O)nc-3n(C)c12`, the TGI with SW-620 colon is above 100 µM; with UACC-257 melanoma, above 100 µM; with CCRF-CEM leukemia, above 100 µM; in the experiment with SK-OV-3 ovarian, above 100 µM; in the experiment on NCI-H460 lung, above 100 µM; in the experiment with MALME-3M melanoma, 38.5 µM. For the same compound, the TGI in the experiment on SK-MEL-2 melanoma, with NCI-H226 lung, in the experiment with HCT-116 colon, with HOP-62 NSCLC, with MDA-MB-231 breast and in the experiment with SF-539 CNS was above 100 µM each time.
For the compound `CC(C)CC(NC(=O)OC(C)(C)C)C(=O)NC(CC(=O)OCc1ccccc1)C(=O)OCc1ccccc1` (stereo not drawn) (Boc-Leu-Asp(OBn)-OBn; configuration not given here), the TGI with SW-620 colon, in the experiment on UACC-257 melanoma, with CCRF-CEM leukemia, in the experiment on SK-OV-3 ovarian, with NCI-H460 lung and with MALME-3M melanoma was above 100 µM each time. Also, the TGI with SK-MEL-2 melanoma is above 100 µM; with NCI-H226 lung, above 100 µM; in the experiment on HCT-116 colon, above 100 µM; in the experiment on HOP-62 NSCLC, above 100 µM; in the experiment on MDA-MB-231 breast it was above 100 µM; in the experiment with SF-539 CNS it was 96.7 µM.
Take `COC(=O)[C@@](C)(COC(=O)C(C)(C)C)NC(=O)OC(C)(C)C`: the TGI in the experiment with SW-620 colon, with UACC-257 melanoma, with CCRF-CEM leukemia, with SK-OV-3 ovarian, in the experiment with NCI-H460 lung and in the experiment on MALME-3M melanoma was above 100 µM in each case. In addition, the total growth inhibition concentration (TGI) in the experiment with SK-MEL-2 melanoma, in the experiment on NCI-H226 lung, with HCT-116 colon, in the experiment with HOP-62 NSCLC, with MDA-MB-231 breast and with SF-539 CNS was above 100 µM each time.
Consider `O=C1CC(C(CC(=O)c2ccccc2)c2ccccc2)C(=O)c2ccccc2N1` (configuration not stated), for which the TGI with SW-620 colon, with UACC-257 melanoma, with CCRF-CEM leukemia, with SK-OV-3 ovarian, in the experiment on NCI-H460 lung and in the experiment with MALME-3M melanoma was above 100 µM each time. Moreover, the concentration for total growth inhibition (TGI) in the experiment on SK-MEL-2 melanoma was 41.4 µM; with NCI-H226 lung, 77.8 µM; in the experiment on HCT-116 colon it was above 100 µM; in the experiment with HOP-62 NSCLC, above 100 µM; in the experiment with MDA-MB-231 breast, above 100 µM; in the experiment with SF-539 CNS, above 100 µM.
As to `O=[N+]([O-])c1ccc2oc(=Nc3ccccc3)c(Nc3ccccc3)nc2c1`, the total growth inhibition concentration (TGI) in the experiment on SW-620 colon, with UACC-257 melanoma, in the experiment on CCRF-CEM leukemia, with SK-OV-3 ovarian, in the experiment with NCI-H460 lung and in the experiment on MALME-3M melanoma was above 100 µM each time. Moreover, the TGI with SK-MEL-2 melanoma, in the experiment on NCI-H226 lung, in the experiment on HCT-116 colon, in the experiment with HOP-62 NSCLC, in the experiment with MDA-MB-231 breast and in the experiment with SF-539 CNS was above 100 µM in each case.
Consider `O=CC(O)C(O)C(O)C1CNC(=S)O1` (configuration not stated), for which the TGI in the experiment on SW-620 colon, in the experiment with UACC-257 melanoma, with CCRF-CEM leukemia, in the experiment with SK-OV-3 ovarian, in the experiment on NCI-H460 lung and in the experiment on MALME-3M melanoma was above 100 µM each time. The TGI in the experiment with SK-MEL-2 melanoma, in the experiment with NCI-H226 lung, in the experiment on HCT-116 colon, with HOP-62 NSCLC, with MDA-MB-231 breast and in the experiment on SF-539 CNS was above 100 µM in each case.
In the case of `CC(C)=CCOc1cc(NC(=S)c2ccsc2C)ccc1Cl`, the TGI in the experiment on SW-620 colon, in the experiment on UACC-257 melanoma, with CCRF-CEM leukemia, in the experiment with SK-OV-3 ovarian, in the experiment on NCI-H460 lung and in the experiment with MALME-3M melanoma was above 100 µM in each case. Further, the total growth inhibition concentration (TGI) was above 100 µM in the experiment with SK-MEL-2 melanoma; above 100 µM with NCI-H226 lung; above 100 µM with HCT-116 colon; 58.9 µM with HOP-62 NSCLC; 83.4 µM in the experiment on MDA-MB-231 breast; above 100 µM in the experiment on SF-539 CNS.
Turning to `CCCC1C(=O)Nc2cccc3ncn(c23)C1=O` (configuration not stated), the TGI in the experiment with SW-620 colon, in the experiment on UACC-257 melanoma, in the experiment with CCRF-CEM leukemia, with SK-OV-3 ovarian, in the experiment on NCI-H460 lung and in the experiment with MALME-3M melanoma was above 100 µM throughout. Besides, the TGI in the experiment on SK-MEL-2 melanoma, in the experiment with NCI-H226 lung, in the experiment with HCT-116 colon, with HOP-62 NSCLC, in the experiment on MDA-MB-231 breast and in the experiment on SF-539 CNS was above 100 µM throughout.
In the case of `CC12CCCCC1=[N+]([O-])C(C)(C)N2O` (configuration not stated), the TGI in the experiment with SW-620 colon, in the experiment with UACC-257 melanoma, in the experiment on CCRF-CEM leukemia, in the experiment with SK-OV-3 ovarian, in the experiment on NCI-H460 lung and in the experiment on MALME-3M melanoma was above 100 µM each time. In addition, the total growth inhibition concentration (TGI) in the experiment with SK-MEL-2 melanoma, with NCI-H226 lung, in the experiment on HCT-116 colon, in the experiment on HOP-62 NSCLC, with MDA-MB-231 breast and in the experiment on SF-539 CNS was above 100 µM throughout.
As for `COc1ccc(C(Cc2ccccc2)C2NC(=S)NC2=O)cc1` (configuration not stated), the TGI with SW-620 colon, in the experiment with UACC-257 melanoma, in the experiment on CCRF-CEM leukemia, with SK-OV-3 ovarian, in the experiment with NCI-H460 lung and with MALME-3M melanoma was above 25 µM in each case. The concentration for total growth inhibition (TGI) with SK-MEL-2 melanoma, in the experiment with NCI-H226 lung, with HCT-116 colon, with HOP-62 NSCLC, in the experiment with MDA-MB-231 breast and in the experiment with SF-539 CNS was above 25 µM in each case.
`COC(=O)CCc1c(Cc2ccc[nH]2)[nH]c(C(=O)OCc2ccccc2)c1C`: the TGI in the experiment with SW-620 colon was 45.7 µM; in the experiment on UACC-257 melanoma, 38.9 µM; with CCRF-CEM leukemia, above 100 µM; in the experiment with SK-OV-3 ovarian, above 100 µM; with NCI-H460 lung, above 100 µM; with MALME-3M melanoma, 38.3 µM. In addition, the total growth inhibition concentration (TGI) was 33.7 µM in the experiment with SK-MEL-2 melanoma; 35.4 µM in the experiment with NCI-H226 lung; 32.9 µM in the experiment on HCT-116 colon; 39.9 µM in the experiment on HOP-62 NSCLC; 28.9 µM in the experiment with MDA-MB-231 breast; 37.5 µM in the experiment on SF-539 CNS.
Take `COC(=O)C1=C(O)C(C(=O)OC)[C@]2(O)[C@@H](C(=O)OC)[C@H]1C[C@@H](c1ccccc1)[C@@H]2C(=O)OC` (some centres not stated): the TGI in the experiment on UACC-257 melanoma was found to be 25.8 µM; with CCRF-CEM leukemia, 49.3 µM; in the experiment with SK-OV-3 ovarian, 47.3 µM; in the experiment on NCI-H460 lung, 37.8 µM; with MALME-3M melanoma it was 45.1 µM; in the experiment with SK-MEL-2 melanoma it was 28.2 µM. Further, the TGI in the experiment with NCI-H226 lung was determined as 61.5 µM; in the experiment on HCT-116 colon it was 21.8 µM; with HOP-62 NSCLC, 41.7 µM; in the experiment with MDA-MB-231 breast, 49.3 µM; in the experiment with SF-539 CNS, 25.5 µM.
`Cc1ccc(S(=O)(=O)[C@@H](Cl)[C@H]2N=C(Cl)NN=C2c2ccccc2)cc1`: the TGI with SW-620 colon was 40.8 µM; in the experiment with UACC-257 melanoma it was 48.1 µM; with CCRF-CEM leukemia, 75 µM; in the experiment with SK-OV-3 ovarian, above 100 µM; in the experiment with NCI-H460 lung, above 100 µM; with MALME-3M melanoma, 41.7 µM. Besides, the concentration for total growth inhibition (TGI) with SK-MEL-2 melanoma was 34.8 µM; in the experiment on NCI-H226 lung, 61 µM; with HCT-116 colon, above 100 µM; with HOP-62 NSCLC, 42.7 µM; in the experiment on MDA-MB-231 breast it was 46.6 µM; in the experiment with SF-539 CNS, 61.1 µM.
`COc1ccc(C2OCCN2C)cc1` (configuration not stated): the TGI in the experiment on SW-620 colon, in the experiment with UACC-257 melanoma, in the experiment on CCRF-CEM leukemia, with SK-OV-3 ovarian, in the experiment with NCI-H460 lung and in the experiment with MALME-3M melanoma was above 100 µM in each case. Also, the concentration for total growth inhibition (TGI) in the experiment with SK-MEL-2 melanoma, in the experiment with NCI-H226 lung, in the experiment on HCT-116 colon, in the experiment with HOP-62 NSCLC, with MDA-MB-231 breast and in the experiment with SF-539 CNS was above 100 µM in each case.
Consider `CC(C)(C)CC(C)(C)NC(=S)NO`, for which the TGI with SW-620 colon, in the experiment with UACC-257 melanoma, in the experiment on CCRF-CEM leukemia, in the experiment with SK-OV-3 ovarian, with NCI-H460 lung and in the experiment with MALME-3M melanoma was above 100 µM in each case. Also, the total growth inhibition concentration (TGI) in the experiment on SK-MEL-2 melanoma, with NCI-H226 lung, with HCT-116 colon, with HOP-62 NSCLC, in the experiment on MDA-MB-231 breast and in the experiment with SF-539 CNS was above 100 µM throughout.
`O=S(=O)(O)c1cccc2cccc(N=Nc3c(O)ccc4ccccc34)c12`: the total growth inhibition concentration (TGI) with SW-620 colon, in the experiment with UACC-257 melanoma, in the experiment on CCRF-CEM leukemia, in the experiment on SK-OV-3 ovarian, in the experiment on NCI-H460 lung and in the experiment with MALME-3M melanoma was above 100 µM throughout. In addition, the total growth inhibition concentration (TGI) in the experiment on SK-MEL-2 melanoma, in the experiment with NCI-H226 lung, with HCT-116 colon, in the experiment with HOP-62 NSCLC, in the experiment with MDA-MB-231 breast and in the experiment on SF-539 CNS was above 100 µM each time.
